Test results: patent US8323911B2, “High throughput assay for discovering new inhibitors of the GIRK1/4 channel” (University of South Carolina, priority 2010, dated 2012)
Blank lines part the entries; values can stand above or below the compound they belong to. Ends that are not written are not given here.

What was measured:
[1] = molecular target: T1, GIRK1/4 channel (Mus musculus, UniProt P48545+P63250); assay: GIRK1/4 channel FLIPR assay (DiBAC4(3) fluorescence, carbachol-stimulated HL-1 cells); assay type: cell-based; conditions: for IC50: 5 min pretreatment, read-out: IC50 for drug block of the carbachol signal; for inhibition of the carbachol signal during pretreatment: 1 μM; for block of the carbachol-sensitive fluorescence signal: at the concentrations tested
T1 construct: consistent with the expression of GIRK1/4 channels in the HL-1 cells; endogenous in cells; host or cells: HL-1 immortalized cardiac atrial cells
T1 sequence (P63250 1-501): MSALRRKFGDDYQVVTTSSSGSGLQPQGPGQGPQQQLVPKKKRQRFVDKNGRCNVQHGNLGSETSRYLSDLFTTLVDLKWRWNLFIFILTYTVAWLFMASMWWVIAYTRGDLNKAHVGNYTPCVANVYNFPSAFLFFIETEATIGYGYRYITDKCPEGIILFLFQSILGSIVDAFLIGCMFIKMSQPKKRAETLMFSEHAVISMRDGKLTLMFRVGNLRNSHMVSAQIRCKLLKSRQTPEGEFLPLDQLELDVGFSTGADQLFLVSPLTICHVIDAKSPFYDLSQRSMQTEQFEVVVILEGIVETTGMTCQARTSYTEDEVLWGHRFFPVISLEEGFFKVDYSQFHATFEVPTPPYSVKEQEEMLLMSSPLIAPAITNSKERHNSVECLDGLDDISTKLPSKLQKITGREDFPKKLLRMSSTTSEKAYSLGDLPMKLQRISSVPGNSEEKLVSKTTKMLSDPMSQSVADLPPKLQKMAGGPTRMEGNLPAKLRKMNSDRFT
T1 sequence (P48545 1-419): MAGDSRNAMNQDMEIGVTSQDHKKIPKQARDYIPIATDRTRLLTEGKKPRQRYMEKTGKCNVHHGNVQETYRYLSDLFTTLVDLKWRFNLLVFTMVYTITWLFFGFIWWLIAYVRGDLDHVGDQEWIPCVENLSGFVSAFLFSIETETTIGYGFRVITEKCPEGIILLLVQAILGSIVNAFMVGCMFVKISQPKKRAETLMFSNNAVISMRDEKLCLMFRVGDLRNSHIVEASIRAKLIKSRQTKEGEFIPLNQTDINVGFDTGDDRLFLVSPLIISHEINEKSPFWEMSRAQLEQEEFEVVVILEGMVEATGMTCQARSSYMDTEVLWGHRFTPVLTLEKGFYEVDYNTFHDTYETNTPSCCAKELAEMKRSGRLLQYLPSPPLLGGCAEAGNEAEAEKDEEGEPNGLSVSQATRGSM
Experimental: HL-1 cells were incubated for 1 h in Tyrode's solution containing 5 μM DiBAC4(3) (AnaSpec, Fremont, Calif.) and fluorescent signals recorded using a Synergy2 microplate reader (BioTek, Winosski, Vt.) at 28° C. Test compounds were dissolved in DMSO at a stock concentration of 10 mM, diluted to various concentrations, and applied to the cells for 5 min prior to the fluorescent measurements. DiBAC4(3) was present in all experimental solutions. DMSO, up to 1% in Tyrode's solution, had no adverse effects on the cell response. Carbachol or control solution (20 μL) was added to each well (total volume=220 μL) at time zero using the Synergy2 injector system. Data points were collected at 10-s intervals over a 300-s sampling period at excitation and emission wavelengths of 480 and 520 nm, respectively. Positive (carbachol or carbachol+1 mM BaCl2) and negative (water or DMSO) control experiments were performed to calculate Z′ factors. The Z′ factor is defined as Z′=1=−(3σP+3σN)/|μP−μN|, where μP and μN are the means of the positive control and negative control signals, and σp and σN are the standard deviations of the positive control and negative control signals, respectively. Plates used for Z′ factor determination contained 2 rows each of positive and negative controls. Dose-response curves for selected compounds were obtained and drug potencies determined by fitting the data with the following curve: Max/(1+([drug]/IC50)^k), where the IC50 is the concentration of the compound producing a 50% decrease in the maximal carbachol response (Max), and k is the slope factor. Interference of the test compounds with the DiBAC4(3) fluorescence was determined in the absence of cells by adding various concentrations of the compounds to Tyrode's solution containing the dye.

[2] = molecular target: T2, IK,Ach (GIRK1/4 channel) (Mus musculus, UniProt P48545+P63250); assay: Patch-clamp recording of whole-cell IK,Ach currents in HL-1 cells; assay type: cell-based
T2 construct: consistent with the expression of GIRK1/4 channels in the HL-1 cells; endogenous in cells; host or cells: HL-1 immortalized cardiac atrial cells
T2 sequence (P63250 1-501): T1 sequence (P63250 1-501)
T2 sequence (P48545 1-419): T1 sequence (P48545 1-419)
Excerpt: A patch-clamp method was used to record the whole-cell IK,Ach using L/M EPC-7 (Adams & List Associates, Great Neck, N.Y.) and Axopatch 200 (Axon Instruments, Sunnyvale, Calif.) amplifiers. The procedures for measuring cardiac K^+ channels have been described in Walsh K B, Zhang J: Neonatal rat cardiac fibroblasts express three types of voltage-gated K^+ channels: regulation of a transient outward current by protein kinase C, Am J Physiol Heart Circ Physiol 2008; 294:H1010-H1017, incorporated by reference herein. Pipettes were made from borosilicate glass capillaries (World Precision Instruments, Sarasota, Fla.) and had resistances of 1 to 2 Mohms when filled with internal solution. All experiments were conducted on isolated, noncoupled HL-1 cells at room temperature (22-24° C.). For the measurement of IK,Ach, cells were placed in a normal Tyrode's solution consisting of 132 mM NaCl, 5 mM KCl, 1 mM CaCl2, 1 mM MgCl2, 5 mM dextrose, and 5 mM HEPES (pH 7.4; with NaOH) (280 mOsm). INa was blocked with tetrodotoxin (10 μM) and the Na^+ channels inactivated by maintaining the myocytes at a holding potential of −40 mV. L-type Ca^2+ channels were blocked with 500 nM nisoldipine. The internal solution was made from 50 mM KCl, 60 mM K^+-glutamate, 2 mM MgCl2, 1 mM CaCl2, 11 mM EGTA, 3 mM adenosine triphosphate (ATP), and 10 mM HEPES (pH 7.3; with KOH) (280 mOsm).
Membrane currents were recorded with 12-bit analog/digital converters (Axon Instruments). Data were sampled at 5 KHz and filtered at 1 KHz with a low-pass Bessel filter (Frequency Devices, Ottawa, Ill.). Series resistance was compensated to give the fastest possible capacity transient without producing oscillations. With this procedure, more than 70% of the series resistance could be compensated. Following the measurement of the HL-1 cell background current, IK,Ach was activated by the addition 10 μM carbachol using a rapid perfusion system. IK,Ach was defined as the BaCl2-sensitive current (see FIGS. 1A-1C, illustrating expression of GIRK1/4 channels in HL-1 cells). IK,Ach blockers were added and inhibition determined immediately after carbachol-induced activation. This limited errors in quantifying drug block due to GIRK1/4 channel desensitization and rundown. Averaged current values presented are means±SE.

[3] = system: GIRK channels; conditions: HEK-293 cells; cited from earlier work
[4] = system: IK,Ach; conditions: patch clamp analysis; read-out: IC50 measured in primary cultures of guinea pig atrial myocytes; cited from earlier work

Compound: [Ba+2].[Cl-].[Cl-] [BaCl2]
block of the carbachol signal ([1]; 1 mM): blocked
block of carbachol-activated inward rectifying current ([2]; 0.5 mM BaCl2): completely blocked

Compound: N/C(=N\C(=O)c1nc(Cl)c(N)nc1N)NCc1ccc(Cl)c(Cl)c1 [DCB, dichlorobenzamil]
IC50 ([1]; HL-1 cells, DiBAC4(3)): 20 µM

Compound: CCN(c1nc(N)c(C(=O)N=C(N)N)nc1Cl)C(C)C [EIPA, 5-(N-ethyl-N-isopropyl)-amiloride]
IC50 ([1]; HL-1 cells, DiBAC4(3)): 0.8 µM

Compound: NC(N)=NC(=O)c1nc(Cl)c(N2CCCCCC2)nc1N [HMA, 5-(N,N-hexamethylene)-amiloride]
IC50 ([1]; HL-1 cells, DiBAC4(3)): 0.9 µM

Compound: CC(C)N(C)c1nc(N)c(C(=O)N=C(N)N)nc1Cl [MIBA, 5-(N-methyl-N-isopropyl)-amiloride]
IC50 ([1]; HL-1 cells, DiBAC4(3)): 2 µM

Compound: COc1ccc(CC(=O)Nc2cc3c(cc2[N+](=O)[O-])OC(C)(C)[C@H](O)[C@H]3NC2CC2)cc1 [NIP-142]
concentrations blocking GIRK channels [3]: nanomolar concentrations

Compound: CC(C)(C)NCC(O)COc1ccccc1C(=O)CCc1ccccc1 (centres unmarked) [TBPP, 1-{2-[3-(tert-butylamino)-2-hydroxypropoxy]phenyl}-3-phenyl-1-propanone]
IC50 ([1]; HL-1 cells, DiBAC4(3)): 2 µM

Compound: N=C(N)NC(=O)c1nc(Cl)c(N)nc1N [amiloride]
block of the carbachol-sensitive signal ([1]; concentrations up to 100 μM): only a partial block

Compound: CN1[C@@H]2CC[C@H]1C[C@@H](OC(=O)C(CO)c1ccccc1)C2 (some centres unmarked) [atropine]
inhibition of the carbachol signal during pretreatment [1]: inhibited

Compound: NC(=NCc1ccccc1)NC(=O)c1nc(Cl)c(N)nc1N [benzamil]
IC50 ([1]; HL-1 cells, DiBAC4(3)): 13 µM

Compound: CN1[C@@H]2C[C@@H](OC(=O)[C@H](CO)c3ccccc3)C[C@H]1[C@@H]1O[C@@H]12 [scopolamine]
inhibition of the carbachol signal during pretreatment [1]: inhibited

Compound: [5-(2-methyl-5-fluorophenyl)furan-2-ylcarbonyl]guanidine [KR-32568]
change in the carbachol-sensitive fluorescence ([1]; drug concentrations up to 1 μM): no significant change

Compound: tertiapin (ALCNCNRIIIPHMCWKKCGKK; ends and bridges not checked; cysteine pairing not given here; UniProt P56587 1-21, looked up) [Kir toxin]
block of IK,Ach current ([2]; 100 nM): strongly blocked

More lines, main results first:

peak carbachol-induced fluorescent signal (F/FO) ([1]; 10 μM carbachol, mean±SD, 4 plates): 0.956±0.008
EC50 ([1]; HL-1 cells, DiBAC4(3), read-out: EC50 for the carbachol-sensitive fluorescent signal (activation of GIRK1/4 channel)): 0.11 µM
carbachol-mediated decrease in the fluorescent signal ([1]; [K]o increased to 20 mM): completely eliminated
fold increase in the carbachol-sensitive signal ([1]; extracellular K+ reduced from 5 mM to 1 mM, 3 plates): 2.0±0.1 fold
Compound: C[N+](C)(C)CCOC(N)=O [carbachol]

IC50 ([1]; HL-1 cells, DiBAC4(3)): 56 µM
block of IK,Ach current ([2]; 100 μM): strongly blocked
Compound: O=C(NCC1CCCCN1)c1cc(OCC(F)(F)F)ccc1OCC(F)(F)F (centres unmarked) [flecainide]
IC50 [4]: 20 µM

block of the carbachol-sensitive fluorescence signal [1]: no block
Compound: COc1ccc(Cl)cc1C(=O)NCCc1ccc(S(=O)(=O)NC(=O)NC2CCCCC2)cc1 [glybenclamide]

IC50 ([1]; HL-1 cells, DiBAC4(3)): 16 µM
Compound: CCCCCCCN(CC)CCCC(O)c1ccc(NS(C)(=O)=O)cc1 (centres unmarked) [ibutilide]

IC50 ([1]; HL-1 cells, DiBAC4(3)): 13 µM
Compound: NC(=Nc1ccccc1)NC(=O)c1nc(Cl)c(N)nc1N [phenamil]

block of the carbachol-sensitive fluorescence signal [1]: no block
Compound: CCN(CC)CCNC(=O)c1ccc(N)cc1 [procainamide]

IC50 ([1]; HL-1 cells, DiBAC4(3)): 3 µM
IC50 ([2]; patch clamp, measured at −100 mV, 10 μM carbachol, read-out: IC50 for block of IK,Ach current): 2 µM
Compound: CCCNCC(O)COc1ccccc1C(=O)CCc1ccccc1 (centres unmarked) [propafenone]

IC50 ([1]; HL-1 cells, DiBAC4(3)): 24 µM
Compound: C=C[C@H]1C[N@@]2CC[C@H]1C[C@@H]2[C@@H](O)c1ccnc2ccc(OC)cc12 [quinidine]

block of the carbachol-sensitive fluorescence signal [1]: no block
Compound: CC(C)NCC(O)c1ccc(NS(C)(=O)=O)cc1 (centres unmarked) [sotalol]
